Reference: US7763292B2, “Cancer cell growth inhibition by black bean (Phaseolus vulgaris L) extracts” (Instituto Technologico y de Estudios Superiores de Monterrey, priority 2004, dated 2010)

Experiments:
[1] = literature (Dávalos, 2004); cited from earlier work
[2] = test system: Human hormone dependent mammary cancer cells (MCF-7); assay: MCF-7 growth inhibition bioassay of quercetin and flavonol-rich black bean extract; assay type: cell-based; conditions: quercetin alone
Excerpt: Human hormone dependent mammary cancer cells (MCF-7) were used to conduct bioassays to test growth inhibitory effects of commercially available quercetin alone and in presence of other flavonols and phytochemicals found in black bean extracts described in Table 2.

MCF-7 cells = conditions: cited from earlier work
[3] = test system: hormone dependent mammary cancer cells MCF-7; assay: MCF-7 proliferation in hormone-free serum, 13 days incubation; assay type: cell-based
Procedure: Methanol extracts of raw and 5-day malted NG-Perla black beans were obtained by the methods described in Examples 2 and 8, respectively, and used to test their effects on hormone dependent mammary cancer cell proliferation (MCF-7).
Since isoflavones found in black beans may show estrogenic activity, and MCF-7 are hormone dependent mammary cancer cells; tests were conducted in hormone-free serum to discard the possibility of enhanced proliferation instead of inhibition. […] Thus, MCF-7 cells were first cultured with purified commercial standards of genistein (Indofine Chemical Company, Hillsborough, N.J.) and genistin (Sigma-Aldrich Chem. Co., St. Louis, Mo.) as positive controls with the aim of testing their effects on proliferation of this cancer cell line.

SMILES: O=c1c(O)c(-c2ccc(O)c(O)c2)oc2cc(O)cc(O)c12 [Quercetin]
- antioxidant value [1]: 10.5 TE
- inhibitory effect on MCF-7 growth [2]: did not have any inhibitory effect
- IC50 (MCF-7 cells; regular serum conditions (Rodgers, 1998), read-out: concentration needed to inhibit 50% of MCF-7 cancer cells): ≥ 200 µM

SMILES: O=C(O)/C=C/c1ccc(O)c(O)c1 [caffeic acid]
- antioxidant value [1]: 6.63 TE

SMILES: O=c1c(-c2ccc(O)cc2)coc2cc(O[C@@H]3O[C@H](CO)[C@@H](O)[C@H](O)[C@H]3O)cc(O)c12 [genistin]
- proliferation inhibition of MCF-7 ([3]; even at concentrations higher than 20 μM): did not show proliferation inhibition

SMILES: O=c1c(O)c(-c2cc(O)c(O)c(O)c2)oc2cc(O)cc(O)c12 [myricetin]
- inhibition of MCF-7 cells (MCF-7 cells; regular serum conditions): do not inhibit

SMILES: COc1ccc(O)c(C(C)(C)C)c1 [BHA, butylated hydroxyanisole]
- antioxidant value [1]: 2.43 TE

SMILES: O=c1c(-c2ccc(O)cc2)coc2cc(O)cc(O)c12 [genistein]
- IC50 ([3]; Homo sapiens, MCF7, 312 h, 13 days incubation, estimated by curve fit to FIG. 12, read-out: concentration required to lower the cell population doublings from 6 to 3 (50% inhibition)): 18.5 µM
